Measured values taken from patent US20220031680A1, “Donecopride As Neuroprotective Agent In the Treatment of Neurodegenerative Diseases” (priority 2018, published 2022).

Key:
amyloid plaques = test: Number of amyloid plaques (thioflavin T) in 5×FAD mouse brain; format: in vivo; settings: 1 mg/kg twice a week for 3 months; for Amyloid plaque number in hippocampus: compared to controls
Method: 5×FAD mice received chronic treatments with drugs or vehicle according to 2 different protocols. In each experiment, drugs or vehicle solution were administered i.p. twice a week (1 mg/kg). In “Protocol 1”, mice (n=6-7 mice per group) were treated with compounds for two months, from 2 to 4 months of age. In “Protocol 2”, mice (n=7) were treated with compounds for three months, from 1 month to 4 months of age. At the end of each protocol, mice were anesthetized with a mixture of 100 mg/kg ketamine and 10 mg/kg xylazine in saline solution and perfused transcardially with PBS. Brains were quickly isolated on ice, the olfactory bulbs and cerebellum removed and the two hemispheres divided. One hemisphere was frozen on dry ice and stored at −80° C. for biochemical analysis, while the other was post-fixed in 4% PFA for immunohistochemistry (IHC).
Thirty-micrometer-thick sections were cut using a vibratome (Microm HM 650V, Thermo Scientific, Saint Herblain, France) and stored in cryoprotectant medium at −20° C. For the labeling of amyloid plaques, free-floating tissue sections of frontal cortex, hippocampus and entorhinal cortex (coordinates from the bregma: frontal cortex=1.98 mm, hippocampus=−1.94 mm, entorhinal cortex=−3.08 mm) were extensively washed in PBS and then incubated in blocking solution (PBS; 3% BSA; 0.1% Triton X-100) for 1 h. Sections were stained with Hoechst dye (1:1000, Life Technologies, Saint Aubin, France) for 15 minutes to detect cell nuclei and then with freshly prepared thioflavin T solution (#T3516-5G, Sigma-Aldrich) (final concentration: 0.01 mg/ml in blocking buffer) for 15 minutes. After washing in 70% ethanol for 5 minutes, samples were mounted on poly-lysine slides with coverslips. For GFAP (glial fibrillary acidic protein) staining, free-floating brain sections were blocked as before and incubated with polyclonal rabbit anti-GFAP (1:1000, Z0334, Dako, Les Ullis, France) at 4° C. overnight. After thioflavin T staining and washing with 70% ethanol, the secondary Alexafluor 594 goat anti-rabbit antibody (1:1000, A11012, Life Technologies) was added for 2 h. PBS washes and mounting were performed as described before.
Images were acquired with an Axiolmager Z1 microscope (Carl Zeiss S.A.S., Marly le Roi, France). Analysis of thioflavin T staining was performed blindly and data are presented as the mean number of particles per mm^2 in two to three tissue sections from the same brain area/animal (Image J software). GFAP expression was quantified using Image J software and results are expressed as area fractions.
28 female 5×FAD mice (C57BL/6J genetic background) were used in this study. Mice received vehicle or compounds (1 mg/kg) i.p., twice a week for three months, from 1 to 4 months of age.
Anti-amyloid effect. Frontal cortex, hippocampus and entorhinal cortex were analyzed as representative areas of 5×FAD mouse brain (frontal, median and caudal sections) and of human brain regions that are affected early by Alzheimer's disease and are highly enriched in amyloid deposits.

[1] = tested on: dopaminergic TH-positive neurons injured with MPP+; test: Survival and neurite network of TH neurons in primary mesencephalic culture injured with MPP+; format: cell-based, rat; settings: MPP+ 4 μM 48 h; 1 h pre-incubation
Method: The aim of the present study was to investigate the neuroprotective effect of MR36014 and MR33583 (at 4 concentrations) on dopaminergic TH-positive neurons injured with MPP^+. The test compounds were pre-incubated for 1 hour before MPP^+ application (4 μM for 48 h). The neuroprotective effect (survival and neurite network) of test compounds was investigated. In addition, the effect on the cytoplasmic alpha-synuclein accumulation was studied.
Rat dopaminergic neurons were cultured as described by Callizot et al. (2019) PLoS One 14:e0215277 and Visanji et al. (2008) FASEB J. 22:2488-2497. Briefly, pregnant female rat (Wistar) of 15 days of gestation were killed using a deep anesthesia with CO2 chamber and a cervical dislocation. The midbrains obtained from 15-day-old rat embryos (Janvier, France) were dissected under a microscope. […]
Midbrains were dissociated by trypsinisation for 20 min at 37° C. […] Viable cells were counted in a Neubauer cytometer using the trypan blue exclusion test. […]
Briefly, on day 6 of culture, the medium was removed, and fresh medium was added, with or without test compounds and with or without MPP^+ for 48 hours diluted in control medium. 6 wells per condition were assessed. […]
Test compounds were tested in 96-well plate (n=6 culture wells per condition). […] The following conditions were assessed: […]

SMILES	Amyloid plaque number in hippocampus (amyloid plaques)	reduction of the number of amyloid plaques in entorhinal cortex (amyloid plaques; compared to vehicle) [%]	reduction of the number of amyloid plaques in frontal cortex (amyloid plaques; compared to vehicle) [%]	concentrations improving TH neuron survival [1] [nM]	concentrations protecting the neurite network of TH neurons [1]
COc1cc(N)c(Cl)cc1C(=O)CCC1CCN(CC2CCCCC2)CC1 [Donecopride]	not significantly different	24±4	16±3		
COc1cc(N)c(F)cc1C(=O)CCC1CCN(CC2CCCCC2)CC1 [Flucopride]	not significantly different	28±6			
COc1cc(N)c(F)cc1C(=O)CCC1CCN(CC2CCCC2)CC1 [MR33583]				100	
COc1cc(N)c(F)cc1C(=O)CCC1CCN(CC2CCCCCC2)CC1 [MR36014]					all investigated doses
